# Columns and labels:
# [1] = test system: Sprague Dawley rats; assay: Rapid insulin sensitivity test (RIST) following 18 hour fast; type: in vivo, rat; details: male rats fasted 18 hours; bolus 600 μg/kg ipv phentolamine; FIG. 4
# Method: Blockade of HISS release results in HDIR.
# Male, Sprague Dawley rats were fed normal rat pellets and then fasted for a 18-hour period (with free access to water) prior to administration of pentobarbital sodium anesthesia and standard RIST methodology surgical preparation as described in Example One.
# Following fasting, the animals were administered a bolus dose of 600 μg/kg ipv of phentolamine or a bolus dose of 600 μg/kg ipv of phentolamine and 5 μg/kg ipv of arecoline.
# [2] = test system: Sprague Dawley rats; assay: Rapid insulin sensitivity test (RIST) following 24 hour fast; type: in vivo, rat; details: male rats fasted 24 hours; constant i.v. infusion of phentolamine; FIG. 3
# Excerpt: HISS-dependent and HISS-independent insulin action can be most readily quantitated using the rapid insulin sensitivity test (RIST) which is a transient euglycemic clamp in response to a bolus administration of insulin. […] The RIST method uses variable glucose infusion rates to maintain the blood glucose level constant. The amount of glucose required to be administered in order to maintain the glycemic baseline is the index of insulin sensitivity and is referred to as the RIST index. The RIST index produced by this procedure consists of a HISS-dependent component and a HISS-independent component that can be readily differentiated by testing in the control fed state and then repeating the test after blockade of HISS release by any of a number of means including surgical denervation of the liver, blockade of hepatic muscarinic receptors, blockade of hepatic nitric oxide production, or blockade of hepatic cyclooxygenase. […] Blockade of HISS release results in HDIR. […] In order to determine whether HISS played a role in controlling glycogenolysis in response to acute trauma, fully anesthetized, fed, male, Sprague Dawley rats were prepared surgically according to the standard animal preparation used to conduct a rapid insulin sensitivity test (RIST) (Lautt et al., 1998). […] Blood was then withdrawn at a rate of 0.5 ml/min to decrease arterial pressure to 50 mm Hg. […]
compound,measurement,setting,value
Cc1ccc(N(CC2=NCCN2)c2cccc(O)c2)cc1 [phentolamine],insulin action (RIST),[1],restoration of insulin action
same,insulin action (RIST),[2],significantly restored toward normal levels
